± gives the expanded uncertainty stated by the source.
Conditions: Liquid, DSC

CCCCCCCCCCCCCCCC(=O)OCC [ethyl hexadecanoate]
Conditions | vapor or sublimation pressure [kPa]
464.49 K | 1.33 ± 0.15
481.9 K | 2.67 ± 0.16
495.23 K | 4 ± 0.17
502.27 K | 5.33 ± 0.22
508.1 K | 6.67 ± 0.25
512.23 K | 8 ± 0.33
515.13 K | 9.33 ± 0.39

CCCCC/C=C\C/C=C\CCCCCCCC(=O)OCC [ethyl linoleate]
Conditions | vapor or sublimation pressure [kPa]
486.64 K | 1.33 ± 0.16
501.94 K | 2.67 ± 0.16
510.65 K | 4 ± 0.21
515.7 K | 5.33 ± 0.25
520.91 K | 6.67 ± 0.23
527.47 K | 8 ± 0.19
537.39 K | 9.33 ± 0.18

CCCCCCCCCCCC(=O)OCC [ethyl dodecanoate]
Conditions | vapor or sublimation pressure [kPa]
420.05 K | 1.33 ± 0.17
432.13 K | 2.67 ± 0.17
443.41 K | 4 ± 0.18
451.05 K | 5.33 ± 0.21
456.47 K | 6.67 ± 0.23
462.44 K | 8 ± 0.29
464.35 K | 9.33 ± 0.57

CCCCCCCCCCCCCC(=O)OCC [ethyl tetradecanoate]
Conditions | vapor or sublimation pressure [kPa]
446.06 K | 1.33 ± 0.16
460.03 K | 2.67 ± 0.17
470.26 K | 4 ± 0.19
476.75 K | 5.33 ± 0.24
481.32 K | 6.67 ± 0.25
487.01 K | 8 ± 0.24
492.47 K | 9.33 ± 0.24

CCCCCCCC/C=C\CCCCCCCC(=O)OCC [ethyl (Z)-9-octadeceneoate]
Conditions | vapor or sublimation pressure [kPa]
486.64 K | 1.33 ± 0.16
500.98 K | 2.67 ± 0.17
508.03 K | 4 ± 0.21
514.61 K | 5.33 ± 0.2
523.69 K | 6.67 ± 0.2
528.56 K | 8 ± 0.21
536.83 K | 9.33 ± 0.19

CCCCCCCCCCCCCCCCCC(=O)OCC [ethyl octadecanoate]
Conditions | vapor or sublimation pressure [kPa]
490.97 K | 1.33 ± 0.16
505.55 K | 2.67 ± 0.17
512.98 K | 4 ± 0.2
520.56 K | 5.33 ± 0.23
524.45 K | 6.67 ± 0.4
525.78 K | 8 ± 0.81
533.97 K | 9.33 ± 0.19

Reference: the NIST ThermoML archive (doi:10.1016/j.jct.2011.01.017)
